Experimental data taken from the supplement of paper PMC11208160.

Test: recombinant UMI read abundance after kanamycin selection (control-corrected) (log10(CPM+1)); higher = more efficient recombination; extreme values may be limits of the assay; sequences stand for … in AGTGCAGAGAAAATCGGCCAGTTTTCTCTGCCTGCAGTCCGCATGCCGTGGGACCCCTTGGGTTCTAACCTGTTGCCTAGATTTATGCAGCGGACTGCCTTTCTCCCAAAGTGATAAACCGG…AGGTTGGTTTCACT; site = the 11-nt donor
Procedure, shortened: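 The measure is log10(CPM+1) for recombinant UMIs. These were PCR-amplified across the donor–target junction and sequenced after Escherichia coli carrying a donor and donor-binding-loop pair library and a target plasmid with T7-inducible IS621 bridge recombinase was plated on IPTG (0.07 mM) plus kanamycin or unselected. CPM were averaged over two replicates and scaled by control-derived factors.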
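Note: IS621 bridge recombinase in Escherichia coli cells against a fixed T5 target plasmid.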

| Sequence | recombinant UMI read abundance (log10) |
| --- | --- |
| AGGAAGACATGGACCGGTTTTCCCGGTAATCCGTATTTGCC (site AGGAAGACTAG) | 0.42 |
| ATCCGTCCATGGACCGGTTTTCCCGGTAATCCGTATTTGAT (site AGCCGTCCTAT) | 0.00385 |
| ACAGTATCATGGACCGGTTTTCCCGGTAATCCGTATTTGCC (site ACAGTATCTTG) | 1.9 |
| GCGAAAACATGGACCGGTTTTCCCGGTAATCCGTATTTGCG (site GCGAAAACTGG) | 0 |
| CGGACGTCATGGACCGGTTTTCCCGGTAATCCGTATTTGCT (site CGGACGTCTAG) | 3.06 |
| GGGGCACCATGGACCGGTTTTCCCGGTAATCCGTATTTGCA (site GGGGCAACTTG) | 0 |
| AGCTAAGCATGGACCGGTTTTCCCGGTAATCCGTATTTGGG (site AGCTCAGCTCC) | 0.0056 |
| AGAAAGGCATGGACCGGTTTTCCCGGTAATCCGTATTTGCT (site AGAAGGGCTAG) | 0.224 |
| TAGGAATCATGGACCGGTTTTCCCGGTAATCCGTATTTGCG (site TTGGAATCTCG) | 1.47 |
| GTGGAAACATGGACCGGTTTTCCCGGTAATCCGTATTTGCA (site CTGGAAACTTG) | 1.56 |
| GTTGGAACATGGACCGGTTTTCCCGGTAATCCGTATTTGGC (site GTTAGAACTGC) | 1.13 |
| ACTAGCGCATGGACCGGTTTTCCCGGTAATCCGTATTTGGT (site ACTAGGGCTAC) | 0.00433 |
| TGTTCCCCATGGACCGGTTTTCCCGGTAATCCGTATTTGTA (site CGTTCCCCTTA) | 0.193 |
| AGAAAGGCATGGACCGGTTTTCCCGGTAATCCGTATTTGCG (site AGAAAGGCTCG) | 1.64 |
| TCAGAAACATGGACCGGTTTTCCCGGTAATCCGTATTTGCG (site TCAGAAACTCG) | 1.86 |
| GAGCATGCATGGACCGGTTTTCCCGGTAATCCGTATTTGGT (site GAGCATGCTAC) | 1.5 |
| CGAGAACCATGGACCGGTTTTCCCGGTAATCCGTATTTGGG (site CGAGAACCTCC) | 0 |
| ATCGAAGCATGGACCGGTTTTCCCGGTAATCCGTATTTGAG (site ATCGAAGCTCT) | 2.1 |
| TAGACGACATGGACCGGTTTTCCCGGTAATCCGTATTTGAC (site TAGACGACTGT) | 2.6 |
| TAAAGTCCATGGACCGGTTTTCCCGGTAATCCGTATTTGGA (site TAAAGTCCTTG) | 0 |
| CGGGGCGCATGGACCGGTTTTCCCGGTAATCCGTATTTGGC (site CGGGGCGCTGC) | 3.06 |
| CGTTAAACATGGACCGGTTTTCCCGGTAATCCGTATTTGAG (site CGTTAAACTCT) | 1.31 |
| TATGAATCATGGACCGGTTTTCCCGGTAATCCGTATTTGCG (site TAGGAATCTCG) | 0.768 |
| TAGTATACATGGACCGGTTTTCCCGGTAATCCGTATTTGCA (site TAGGATACTTG) | 0.222 |
| CGGGAGACATGGACCGGTTTTCCCGGTAATCCGTATTTGCC (site CGGGAGCCTGG) | 0 |

| Sequence | recombinant UMI read abundance (log10) |
| --- | --- |
| GATTGGTCATGGACCGGTTTTCCCGGTAATCCGTATTTGAC (site GATTGGACTGT) | 0 |
| GACCCATCATGGACCGGTTTTCCCGGTAATCCGTATTTGAG (site GACCCATCTCT) | 2.43 |
| CATGTGTCATGGACCGGTTTTCCCGGTAATCCGTATTTGAC (site GATGTGTCTGT) | 0 |
| CGCATGCCATGGACCGGTTTTCCCGGTAATCCGTATTTGCA (site CGCATGCCTTG) | 0.808 |
| TAGCCAGCATGGACCGGTTTTCCCGGTAATCCGTATTTGAA (site TAGCAAGCTTT) | 0.0207 |
| GCGAACACATGGACCGGTTTTCCCGGTAATCCGTATTTGCT (site GCGAAAACTAG) | 0 |
| GTGCATGCATGGACCGGTTTTCCCGGTAATCCGTATTTGGA (site GTGCATGCTAC) | 0.00401 |
| GAATGGCCATGGACCGGTTTTCCCGGTAATCCGTATTTGAA (site GAATGGCCTTT) | 0.0109 |
| CGCTCGACATGGACCGGTTTTCCCGGTAATCCGTATTTGTT (site CGTTCGACTAA) | 0 |
| TGTACACCATGGACCGGTTTTCCCGGTAATCCGTATTTGAC (site TCTACACCTGT) | 0 |
| GGATAGACATGGACCGGTTTTCCCGGTAATCCGTATTTGCC (site GGAGAGACTGG) | 0 |
| AGGTAGACATGGACCGGTTTTCCCGGTAATCCGTATTTGCA (site AGGAAGACTTG) | 1.23 |
| GGATAATCATGGACCGGTTTTCCCGGTAATCCGTATTTGAA (site GGATAATCTTT) | 2.84 |
| CGTTGGACATGGACCGGTTTTCCCGGTAATCCGTATTTGAG (site CGTTCGACTCT) | 0.022 |
| TCAACCGCATGGACCGGTTTTCCCGGTAATCCGTATTTGCG (site TCGACCGCTCG) | 0.00292 |
| ATACTATCATGGACCGGTTTTCCCGGTAATCCGTATTTGAC (site ATACTATCTGT) | 3.39 |
| TTTGCGACATGGACCGGTTTTCCCGGTAATCCGTATTTGCT (site TTTGCGCCTAG) | 0.00919 |
| TCGTATTCATGGACCGGTTTTCCCGGTAATCCGTATTTGTT (site TCGTATTCTAA) | 1.24 |
| CCTATACCATGGACCGGTTTTCCCGGTAATCCGTATTTGCG (site CCTATACCTCG) | 0.0152 |
| GCTTAGACATGGACCGGTTTTCCCGGTAATCCGTATTTGGC (site GCTTAGACTGC) | 2.37 |
| CAGTCGGCATGGACCGGTTTTCCCGGTAATCCGTATTTGGG (site CAGTCGGCTCC) | 0.157 |
| GTTGATCCATGGACCGGTTTTCCCGGTAATCCGTATTTGGT (site GTTGTTCCTAC) | 0.011 |
| CGAGAACCATGGACCGGTTTTCCCGGTAATCCGTATTTGGG (site CGAGGACCTCC) | 0.0198 |
| CTGGAAACATGGACCGGTTTTCCCGGTAATCCGTATTTGCT (site CTGGAAACTTG) | 0.49 |
| CCGAATCCATGGACCGGTTTTCCCGGTAATCCGTATTTGTT (site CTGAATCCTAA) | 0.00536 |

| Sequence | recombinant UMI read abundance (log10) |
| --- | --- |
| TGGGAACCATGGACCGGTTTTCCCGGTAATCCGTATTTGAT (site TGGGAACCTAT) | 0.00982 |
| AGATCAGCATGGACCGGTTTTCCCGGTAATCCGTATTTGGG (site AGTTCAGCTCC) | 0.296 |
| CCCGGTCCATGGACCGGTTTTCCCGGTAATCCGTATTTGAA (site CCCGGTCCTTT) | 0.00816 |
| CACCCCTCATGGACCGGTTTTCCCGGTAATCCGTATTTGCC (site CACACCTCTGG) | 0 |
| GTACTAACATGGACCGGTTTTCCCGGTAATCCGTATTTGGA (site CTACTAACTTC) | 0.455 |
| ACAGTATCATGGACCGGTTTTCCCGGTAATCCGTATTTGAC (site ACAGTATCTGT) | 3.52 |
| TGCTAGGCATGGACCGGTTTTCCCGGTAATCCGTATTTGGT (site TGATAGGCTAC) | 0.00571 |
| AGCCTTTCATGGACCGGTTTTCCCGGTAATCCGTATTTGAT (site AGCCTTTCTTT) | 0 |
| GGCAATTCATGGACCGGTTTTCCCGGTAATCCGTATTTGAA (site GGCAATACTTT) | 0.0193 |
| GCCTACACATGGACCGGTTTTCCCGGTAATCCGTATTTGTC (site GCCTACACTGA) | 1.8 |
| CTAACTTCATGGACCGGTTTTCCCGGTAATCCGTATTTGCA (site CTAACTTCTTG) | 2.08 |
| ATCGATTCATGGACCGGTTTTCCCGGTAATCCGTATTTGAG (site ATCGATTCTCT) | 2.41 |
| CGCTTGGCATGGACCGGTTTTCCCGGTAATCCGTATTTGCT (site CGTTTGGCTAG) | 0 |
| CGACTAACATGGACCGGTTTTCCCGGTAATCCGTATTTGGA (site CAACTAACTTC) | 1.44 |
| ACAGAATCATGGACCGGTTTTCCCGGTAATCCGTATTTGCA (site ACAGGATCTTG) | 2.45 |
| GAGAAACCATGGACCGGTTTTCCCGGTAATCCGTATTTGGT (site GAGAAACCTAC) | 0 |
| CCAGCATCATGGACCGGTTTTCCCGGTAATCCGTATTTGAC (site CCAGCATCTGT) | 0 |
| TCTGCAGCATGGACCGGTTTTCCCGGTAATCCGTATTTGTA (site TCTGCAGCTTA) | 0 |
| CCGTTACCATGGACCGGTTTTCCCGGTAATCCGTATTTGAG (site CCGTTACCTCT) | 0.0156 |
| GTAGGTTCATGGACCGGTTTTCCCGGTAATCCGTATTTGAC (site GTAGGTGCTGT) | 0 |
| CTTCTACCATGGACCGGTTTTCCCGGTAATCCGTATTTGCT (site CTTCTACCTAG) | 0.00449 |
| TTCCCTACATGGACCGGTTTTCCCGGTAATCCGTATTTGAG (site TTCCCTACTCT) | 0.00443 |
| TTTTCGGCATGGACCGGTTTTCCCGGTAATCCGTATTTGCT (site TTTGCGGCTAG) | 0.00223 |
| TTCGAGACATGGACCGGTTTTCCCGGTAATCCGTATTTGAC (site TTCGAGACTGT) | 1.53 |
| CAAGTCCCATGGACCGGTTTTCCCGGTAATCCGTATTTGCT (site CAAATCCCTAG) | 0 |
